Several values for one entry are separate records, joined by “and”; a condition that tells them apart may be missing. Identical values can stand only once. Where a SMILES comes first, the peptide text is derived from it.
How the values were obtained:
Caco-2 cell monolayers = test: Apical-to-basal transport and metabolism across Caco-2 cell monolayers (Transwell)
From the text: TRANSEPITHELIAL TRANSPORT AND METABOLISM OF BORONATED DIPEPTIDES ACROSS CACO-2 AND HCT-8 CELL MONOLAYERS Amy L. Elkins,John G. Eley,3, Merrill C. […] This study examined the effect of boronation on the transepithelial transport and metabolism of three glycine-phenylalanine dipeptides in Caco-2 and HCT-8 cell monolayers. […] Oral delivery of proteins and peptides as therapeutic agents is problematic due to their low bioavailability. This is mainly due to both their poor permeability across cellular barriers and to enzymatic degradation that occurs in the gut lumen, brush border, and enterocyte cytoplasm (2). […] Such as a substitution may also have the potential to alter the in vivo bioavailability of dipeptides. […] This study was undertaken to determine the effect of boronation on the transepithelial transport and metabolism of three glycine-phenylalanine dipeptides. […] Caco-2 cells are human colon adenocarcinoma cells first isolated from a primary colonic tumor (4). The cell line undergoes spontaneous enterortic differentiation in culture after reaching cotfflucnce, and morphologically resembles small intestinal epitheliun after three xveeks in culture (5). These morphological characteristics include the development of a brush border region expressing microvilli, occluding junctions, dome formations, and the formation of tight junctions leading to cell polarity. […] The cell line expresses a dipeptide carrier transport system in both the apical and basal membranes (9-10). […] HCT-8 cells are human adenocarcinoma cells from the ileocecal region; as such, these cells may give a truer reflection of gut absorption compared to Caco-2 cells which are derived from the colonic region. The cells produce a polarized differentiated monolayer consisting of enterocyte-like columnar cells that are interconnected by mature tightjunctions and desmosomes and exposed microvilla (11). The structural and functional integrity of the tight junctions of cells grown on polyester filter cups (Falcon, BD) and membrane filter inserts (Transwell(R), Costar) have been confirmed by transmission electron microscopy, transepithelial electrical resistance measurements, and transport of impermeant markers such as mannitol and polyethylene glycol (11, 12). […] Compound//was donated by Boron Biologicals, Inc., Raleigh, NC. Compound 111 was synthesized as follows: L-phenylalanine methyl ester hydrochloride (2.09 g, 9.7 mmol) and dimethylglycine (1 g, 9.7 retool) xvere suspended in 30 ml dry tetrahydrofuran with 10 mmol of triethylamine, dicyclohexyl-carbodiinfide and hydrox3'benzotriazole. The reaction was stirred at room temperature for 48 hours under nitrogen and the solvent was removed under reduced pressure. The product was purified on silica gel, two void volumes of hexane, two void volumes hexane/ethanol (8'1), and then hexane/ethanol (5:1). […] For the transport studies, cells were diluted with growth medium to give a total of […] cells/cm in 1.5 mls. The 1.5 ntis was placed in the apical compartment of a Transwcll(R) (Costar). The Transxvell(R) system is a 6-well plate with each well having an apical compartment capacity of 1.5 ntis, a basal compartment capacity of 2.5 ntis, and a 4.71 cm polycarbonate microporous (0.45 gin) membrane separating the two compartments. Cell monolayers in the Transwell(R) were allowed to grow for 21 days while the medium was replaced every 3 days. The cells were grown in Dulbecco's Modified Eagle Medium (D-MEM) containing L-glutamine and sodium pyruvate at 37C under 5% CO-. and saturated humidity. Additives to the medium included 10% heat- inactivated fetal bovine serum, 10 mM nonessential amino acids, 100 units of penicillin and […] of streptomycin per ml of medium. 278 A.L. Elkins, J.G. Eley, M.C.

in vitro = details: human, Caco-2
From the text: TRANSEPITHELIAL TRANSPORT AND METABOLISM OF BORONATED DIPEPTIDES ACROSS CACO-2 AND HCT-8 CELL MONOLAYERS Amy L. Elkins,John G. Eley,3, Merrill C. […] This study examined the effect of boronation on the transepithelial transport and metabolism of three glycine-phenylalanine dipeptides in Caco-2 and HCT-8 cell monolayers. […] Oral delivery of proteins and peptides as therapeutic agents is problematic due to their low bioavailability. This is mainly due to both their poor permeability across cellular barriers and to enzymatic degradation that occurs in the gut lumen, brush border, and enterocyte cytoplasm (2). […] Such as a substitution may also have the potential to alter the in vivo bioavailability of dipeptides. […] This study was undertaken to determine the effect of boronation on the transepithelial transport and metabolism of three glycine-phenylalanine dipeptides. […] Caco-2 cells are human colon adenocarcinoma cells first isolated from a primary colonic tumor (4). The cell line undergoes spontaneous enterortic differentiation in culture after reaching cotfflucnce, and morphologically resembles small intestinal epitheliun after three xveeks in culture (5). These morphological characteristics include the development of a brush border region expressing microvilli, occluding junctions, dome formations, and the formation of tight junctions leading to cell polarity. […]

[1] = perfusion into the jejunum, two studies; cited from earlier work
[2] = tested on: brush border aminopeptidases; details: rat brush border aminopeptidases; cited from earlier work

**Q.** Which Apparent permeability coefficient Pe + SD (Caco-2 cell monolayers; Table 8, 4 h, 4C Static) does the source give for `COC(=O)[C@H](Cc1ccccc1)NC(=O)CN(C)C` [Compound III, N,N-dimethylglycyl-L-phenylalanine methyl ester] here?
**A.** 8 ×10⁻⁶ cm/s

**Q.** For `CCCOC(=O)c1ccc(O)cc1` [Propyl paraben, reference compound], which “mode of transport across the monolayer” value (Caco-2 cell monolayers; Caco-2) is on record?
**A.** passive diffusion

**Q.** What about the “compound recovered after transport through Caco-2 cell monolayers” value (Caco-2 cell monolayers; human, Caco-2, 4 h) of the same compound?
**A.** 100%

**Q.** What about the recovery (in vitro) of the same compound?
**A.** 100%

**Q.** With `NCC(=O)N[C@@H](Cc1ccccc1)C(=O)O` [glycine-phenylalanine] (H-Gly-Phe-OH) as the compound, how does the disappearance rate [1] read?
**A.** 68% and 79%

**Q.** And the substrate specificity [2]?
**A.** 85%

— publication PMC2365028, “Transepithelial Transport and Metabolism of Boronated Dipeptides Across Caco-2 and HCT-8 Cell Monolayers” (Metal-Based Drugs, 1996)
